Data from patent publication US20260225997A1, “IONIZABLE AMINE LIPIDS” (Intellia Therapeutics, Inc., priority 2018, published 2026).

Key:
[1] = RNA encapsulation efficiency of LNP (Ribogreen fluorescence assay); format: physicochemical
Outline: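 LNP samples diluted in 1× TE buffer with 0.2% Triton X-100 (total RNA) or without it (free RNA), stained with RiboGreen for ~10 min at room temperature in the dark, read at ex 488/em 525 nm against RNA standard curves. Encapsulation efficiency = (Total RNA − Free RNA)/Total RNA.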

[2] = LNP average particle size and polydispersity by dynamic light scattering (Malvern Zetasizer); format: physicochemical
Outline: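 LNPs diluted in PBS to a count rate of about 200–400 kcps and measured by dynamic light scattering. Size given as intensity-weighted Z-average diameter, with number-average diameter and polydispersity index also reported.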

[3] = Table 3, Example 52: LNP, Cas9 mRNA + sgRNA (G650) 1:1 w/w, N:P 6.0, Compound 19 50/9/38/3, others 50/10/38.5/1.5
[4] = Table 5, Example 53: LNP with gRNA G282 (TTR), 1:1 w/w, N:P 6.0
[5] = Table 5, Example 53: LNP with gRNA G650 (B2M), 1:1 w/w, N:P 6.0
[6] = Table 10, Example 55: LNP, G282 (TTR) 1:1 w/w, N:P 6.0
[7] = Table 14, Example 58: LNP, G282 (TTR) 1:1 w/w, N:P 6.0
[8] = Table 16, Example 59: LNP, G282 (TTR) 1:1 w/w, N:P 6.0
[9] = Table 18, Example 60: LNP, G502 (TTR), sgRNA:Cas9 mRNA 1:2 w/w, N:P 6.0
[10] = Table 22, Example 62: LNP, G282 (TTR), sgRNA:Cas9 mRNA 1:2 w/w, N:P 6.0
[11] = Table 24, Example 63: LNP, G282 (TTR) 1:1 w/w, NP 6.0
[12] = Table 3, Example 52: LNP, Cas9 mRNA + sgRNA (G650) 1:1 w/w, N:P 6.0
[13] = Table 5, Example 53: LNP with gRNA G282 (TTR)
[14] = Table 5, Example 53: LNP with gRNA G650 (B2M)
[15] = Table 10, Example 55: LNP, G282 1:1
[16] = Table 14, Example 58: LNP, G282 1:1
[17] = Table 16, Example 59: LNP, G282 1:1
[18] = Table 18, Example 60: LNP, G502 1:2
[19] = Table 22, Example 62: LNP, G282 1:2
[20] = Table 24, Example 63: LNP, G282 1:1
[21] = Table 12, Example 56: LNP, G282 (TTR), ratio 6.0
[22] = Table 20, Example 61: LNP, G282 (TTR) 1:1 w/w, N:P 6.0
[23] = Table 12, Example 56: LNP, G282
[24] = Table 20, Example 61: LNP, G282 1:1
[25] = Table 8, Example 54: LNP, G650 (B2M) 1:1
[26] = Table 26, Example 64: LNP, G282 1:1

With `CCCCCCCCCOC(=O)CCCCCCCN(CCO)CCCCCCCC(OCCCCCCCC)OCCCCCCCC` [Compound 1, nonyl 8-((8,8-bis(octyloxy)octyl)(2-hydroxyethyl)amino octanoate] the “Encapsulation (%)” value [1, 3] was 98%, the “Encapsulation (%)” value [1, 4] was 97% and the “Encapsulation (%)” value [1, 5] was 98%. The “Encapsulation (%)” value [1, 6] was 97%, the “Encapsulation (%)” value [1, 7] was 97% and the “Encapsulation (%)” value [1, 8] was 96%. The “Encapsulation (%)” value [1, 9] was 97%, the “Encapsulation (%)” value [1, 10] was 97% and the “Encapsulation (%)” value [1, 11] was 98%. The “Num Ave Size (nm)” value [2, 12] was 57.04 nm, the PDI [2, 12] was 0.105 and the “Z-Ave Size (nm)” value [2, 12] was 79.49 nm. For the same compound, the “Num Ave Size (nm)” value [2, 13] was 61.19 nm, the PDI [2, 13] was 0.008 and the “Z-Ave Size (nm)” value [2, 13] was 75.77 nm. For the same compound, the “Num Ave Size (nm)” value [2, 14] was 65.11 nm, the PDI [2, 14] was 0.028 and the “Z-Ave Size (nm)” value [2, 14] was 80.96 nm. For the same compound, the “Num Ave Size (nm)” value [2, 15] was 55.38 nm, the PDI [2, 15] was 0.05 and the “Z-Ave Size (nm)” value [2, 15] was 69.94 nm. The “Num Ave Size (nm)” value [2, 16] was 55.38 nm, the PDI [2, 16] was 0.05 and the “Z-Ave Size (nm)” value [2, 16] was 69.94 nm. The “Num Ave Size (nm)” value [2, 17] was 57.78 nm, the PDI [2, 17] was 0.04 and the “Z-Ave Size (nm)” value [2, 17] was 72.21 nm. The “Num Ave Size (nm)” value [2, 18] was 58.01 nm, the PDI [2, 18] was 0.037 and the “Z-Ave Size (nm)” value [2, 18] was 74.5 nm. The “Num Ave Size (nm)” value [2, 19] was 58.01 nm, the PDI [2, 19] was 0.037 and the “Z-Ave Size (nm)” value [2, 19] was 74.5 nm. For the same compound, the “Num Ave Size (nm)” value [2, 20] was 52 nm, the PDI [2, 20] was 0.06 and the “Z-Ave Size (nm)” value [2, 20] was 70 nm.
For `CCCCCCCCOC(CCCCCCCN(CCO)CCCCCCCC(=O)OC(CC)CCCCCCCC)OCCCCCCCC` (stereo not shown) [Compound 17, undecan-3-yl 8-((8,8-bis(octyloxy)octyl)(2-hydroxyethyl)amino)octanoate], the “Encapsulation (%)” value [1, 7] was 91%, the “Encapsulation (%)” value [1, 10] was 94% and the “Num Ave Size (nm)” value [2, 16] was 54.25 nm. For the same compound, the PDI [2, 16] was 0.056, the “Z-Ave Size (nm)” value [2, 16] was 68.72 nm and the “Num Ave Size (nm)” value [2, 19] was 44.93 nm. For the same compound, the PDI [2, 19] was 0.072 and the “Z-Ave Size (nm)” value [2, 19] was 62.89 nm.
With `CCCCCCCCCOC(=O)CCCCCCCN(CCO)CCCCCCCC(=O)OC(CCCCCCCC)CCCCCCCC` [Compound 18, heptadecan-9-yl 8-((2-hydroxyethyl)(8-(nonyloxy)-8-oxooctyl)amino)octanoate, reference compound] the “Encapsulation (%)” value [1, 21] was 81%, the “Encapsulation (%)” value [1, 8] was 98% and the “Encapsulation (%)” value [1, 22] was 90%. For the same compound, the “Num Ave Size (nm)” value [2, 23] was 69.77 nm, the PDI [2, 23] was 0.112 and the “Z-Ave Size (nm)” value [2, 23] was 106.6 nm. For the same compound, the “Num Ave Size (nm)” value [2, 17] was 53.06 nm, the PDI [2, 17] was 0.093 and the “Z-Ave Size (nm)” value [2, 17] was 75.79 nm. The “Num Ave Size (nm)” value [2, 24] was 52.25 nm, the PDI [2, 24] was 0.083 and the “Z-Ave Size (nm)” value [2, 24] was 74.67 nm.
For `CCCCC/C=C\C/C=C\CCCCCCCC(=O)OCC(COC(=O)CCC(OCCCCCCCC)OCCCCCCCC)COC(=O)OCCCN(CC)CC` (stereo not shown) [Compound 19, 3-((4,4-bis(octyloxy)butanoyl)oxy)-2-(((((3-(diethylamino)propoxy))-carbonyl)oxy)methyl)propyl (9Z,12Z)-octadeca-9,12-dienoate, reference compound], the “Encapsulation (%)” value [1, 3] was 98%, the “Encapsulation (%)” value [1, 4] was 99% and the “Encapsulation (%)” value [1, 5] was 98%. For the same compound, the “Encapsulation (%)” value ([1]; Table 8, Example 54: LNP, G650 (B2M) 1:1 w/w, N:P 6.0) was 98%, the “Encapsulation (%)” value [1, 6] was 98% and the “Encapsulation (%)” value [1, 21] was 97%. For the same compound, the “Encapsulation (%)” value [1, 7] was 99%, the “Encapsulation (%)” value [1, 8] was 98% and the “Encapsulation (%)” value [1, 9] was 99%. The “Encapsulation (%)” value [1, 22] was 98%, the “Encapsulation (%)” value [1, 10] was 99% and the “Encapsulation (%)” value [1, 11] was 98%. The “Encapsulation (%)” value ([1]; Table 26, Example 64: LNP, G282 (TTR) 1:1 w/w, N:P 6.0) was 98%, the “Num Ave Size (nm)” value [2, 12] was 64.97 nm and the PDI [2, 12] was 0.056. For the same compound, the “Z-Ave Size (nm)” value [2, 12] was 82.71 nm, the “Num Ave Size (nm)” value [2, 13] was 62.86 nm and the PDI [2, 13] was 0.015. The “Z-Ave Size (nm)” value [2, 13] was 79.83 nm, the “Num Ave Size (nm)” value [2, 14] was 64.97 nm and the PDI [2, 14] was 0.056. For the same compound, the “Z-Ave Size (nm)” value [2, 14] was 82.71 nm, the “Num Ave Size (nm)” value [2, 25] was 64.97 nm and the PDI [2, 25] was 0.056. For the same compound, the “Z-Ave Size (nm)” value [2, 25] was 82.71 nm, the “Num Ave Size (nm)” value [2, 15] was 64.95 nm and the PDI [2, 15] was 0.025. The “Z-Ave Size (nm)” value [2, 15] was 81.76 nm, the “Num Ave Size (nm)” value [2, 23] was 63.19 nm and the PDI [2, 23] was 0.047. For the same compound, the “Z-Ave Size (nm)” value [2, 23] was 79.18 nm, the “Num Ave Size (nm)” value [2, 16] was 71.1 nm and the PDI [2, 16] was 0.007. For the same compound, the “Z-Ave Size (nm)” value [2, 16] was 84.99 nm, the “Num Ave Size (nm)” value [2, 17] was 71.49 nm and the PDI [2, 17] was 0.02. For the same compound, the “Z-Ave Size (nm)” value [2, 17] was 86.84 nm, the “Num Ave Size (nm)” value [2, 18] was 73.15 nm and the PDI [2, 18] was 0.033. The “Z-Ave Size (nm)” value [2, 18] was 88.6 nm, the “Num Ave Size (nm)” value [2, 24] was 71.49 nm and the PDI [2, 24] was 0.02. The “Z-Ave Size (nm)” value [2, 24] was 86.84 nm, the “Num Ave Size (nm)” value [2, 19] was 73.15 nm and the PDI [2, 19] was 0.033. The “Z-Ave Size (nm)” value [2, 19] was 88.6 nm, the “Num Ave Size (nm)” value [2, 20] was 66 nm and the PDI [2, 20] was 0.03. The “Z-Ave Size (nm)” value [2, 20] was 82 nm, the “Num Ave Size (nm)” value [2, 26] was 65 nm and the PDI [2, 26] was 0.03. For the same compound, the “Z-Ave Size (nm)” value [2, 26] was 83 nm.
With `CCCCCCCCOC(CCCCCCCN(CCO)CCCCCCCC(=O)OC(CC)CCCCCC)OCCCCCCCC` (stereo not shown) [Compound 28, nonan-3-yl 8-((8,8-bis(octyloxy)octyl)(2-hydroxyethyl)amino)octanoate] the “Encapsulation (%)” value [1, 11] was 97%, the “Num Ave Size (nm)” value [2, 20] was 42 nm and the PDI [2, 20] was 0.30. The “Z-Ave Size (nm)” value [2, 20] was 78 nm.
